The record followed here is patent publication US20230416221A1, “DIHYDROISOQUINOLINONE AND ISOINDOLINONE DERIVATIVES AND USES THEREOF” (HEFEI INSTITUTES OF PHYSICAL SCIENCE, CHINESE ACADEMY OF …, priority 2020, published 2023).

In test [1] the test system is human liver cancer cell line HepG2. The test can be described thus: Growth of cancer cells, Cell Titer-Glo GI50, HepG2. Format: cell-based. The note with it: incubated for 72 hours. Background: In ATP-based viability assays light output follows the ATP content of the culture.
In test [2] the test system is acute myeloid leukemia cell line MOLM13. The test can be described thus: Growth of cancer cells, Cell Titer-Glo GI50, MOLM13. The class given is cell-based. Particulars: incubated for 72 hours, Cell Titer-Glo.
Test [3] deals with acute myeloid leukemia cell line MOLM14. The test can be described thus: Growth of cancer cells, Cell Titer-Glo GI50, MOLM14. The class given is cell-based. Particulars: incubated for 72 hours, Cell Titer-Glo, read-out: GI50 MOLM 14.
In test [4] the test system is human chronic myeloid leukemia cell K562. The test can be described thus: Growth of cancer cells, Cell Titer-Glo GI50, K562. The class given is cell-based. Particulars: incubated for 72 hours, Cell Titer-Glo, read-out: GI50 K562.
The test system of test [5] is MOLM13 drug resistant strain MOLM13 BR1. The test can be described thus: Growth of drug resistant strain MOLM13 BR1, Cell Titer-Glo GI50. Format: cell-based. Particulars: Homo sapiens, MOLM-13, BAY1251152-resistant MOLM13 strain, 72 hours.
For test [6], the system named is HepG2 drug resistant strain HepG2 CDK9 KI C20-1. The experiment in a line: Growth of drug resistant strain HepG2 KI C20-1, Cell Titer-Glo GI50. Format: cell-based, human. The note with it: for GI50 HepG2 CDK9 KI C20-1: CDK9 resistant mutation knockin HepG2 monoclone, 72 hours, Cell Titer-Glo.
In the next test the target is CDK9 (Homo sapiens (Human), UniProt P50750). The experiment in a line: Binding activity of compound and CDK9, split luciferase system (C37-CL / CDK9-NL) in HEK-293T cells. Format: cell-based. An excerpt:
The plasmid of split luciferase system was constructed by molecular cloning technology. The N-terminal domain (NLuc) and C-terminal domain (CLuc) of luciferase were respectively cloned and inserted into the vector PCDNA3 to construct NLuc-PCDNA3 and CLuc-PCDNA3 vectors, and the polyclonal sites were reserved at both ends of the sequence. Then CDC37 and CDK9 were cloned into the corresponding vectors to construct C37-CL and CDK9-NL vectors. C37-CL plasmid sequence is shown in SEQ ID NO. 1. CDK9-NL plasmid sequence is shown in SEQ ID NO. 2.
The mixed transfection complex was added to the 10 cm cell culture dish and cultured at 37° C. and 5% CO2 for 24 hours. […] After counting, the transfected cells were placed in a 96-well white Corning cell culture plate (purchased from Corning, U.S.) with 100 μL, 5000 cells/well. After 12 hours, the medium was removed from the 96-well plate and 100 μL culture medium containing corresponding concentration of the testing compound was added, which was cultured continuously for 12 hours. After 12 hours, 20 μL Luciferase-Glo (purchased from Promega, U.S.) testing reagent was added to each well. After mixing, the […] value was detected using a microplate reader.

Test [7] has as its system acute myeloid leukemia cell line MV4-11. The test can be described thus: Growth of cancer cells, Cell Titer-Glo GI50, MV4-11. The note with it: read-out: GI50 MV4-11.
Test [8] has as its system histiocytic lymphoma U-937. The experiment in a line: Growth of cancer cells, Cell Titer-Glo GI50, U937. The class given is cell-based. The note with it: Homo sapiens, U-937; incubated for 72 hours, Cell Titer-Glo; read-out: GI50 U937.
The subject of test [9] is acute myeloid leukemia cell line OCI-AML-3. The test can be described thus: Growth of cancer cells, Cell Titer-Glo GI50, OCI-AML-3. The class given is cell-based. The note with it: Homo sapiens; incubated for 72 hours, Cell Titer-Glo; read-out: GI50 AML3.
Test [10] has as its system human colorectal cancer cell HCT116. The experiment in a line: Growth of cancer cells, Cell Titer-Glo GI50, HCT116. The class given is cell-based.
Test [11] has as its system human ovarian granulosa tumor cell COV434. The experiment in a line: Growth of cancer cells, Cell Titer-Glo GI50, COV434. Format: cell-based. Particulars: read-out: GI50 COV434.
The subject of test [12] is human colorectal cancer cell DLD1. The test can be described thus: Growth of cancer cells, Cell Titer-Glo GI50, DLD1. The class given is cell-based.
Test [13] concerns lymphoma cell WSU-DLCL2. The test can be described thus: cells. Particulars: Homo sapiens, WSUDLCL2, 72 h, read-out: GI50 WSU-DLCL2.
Test [14] relates to cervical cancer cell HeLa. The experiment in a line: cells. Particulars: Homo sapiens, 72 h, read-out: GI50 HeLa.
The subject of test [15] is gastrointestinal stromal tumor GIST-T1. The test can be described thus: cells. The note with it: Homo sapiens, GISTT1, 72 h, read-out: GI50 GIST-T1.
Another test addresses CDK9/CyclinT1 protein (Homo sapiens (Human), UniProt P50750). The experiment in a line: Enzyme activity assay of CDK9 protein inhibition in vitro, CDK9/CyclinT1.
The target in test [16] is CDK9-L156F mut/CyclinT1 mutant protein (Homo sapiens (Human), UniProt P50750, L156F). The test can be described thus: Enzyme activity assay of CDK9 mutant protein inhibition in vitro, CDK9-L156F mut/CyclinT1.
Sequence of CDK9-L156F mut/CyclinT1 mutant protein (P50750 whole entry L156F): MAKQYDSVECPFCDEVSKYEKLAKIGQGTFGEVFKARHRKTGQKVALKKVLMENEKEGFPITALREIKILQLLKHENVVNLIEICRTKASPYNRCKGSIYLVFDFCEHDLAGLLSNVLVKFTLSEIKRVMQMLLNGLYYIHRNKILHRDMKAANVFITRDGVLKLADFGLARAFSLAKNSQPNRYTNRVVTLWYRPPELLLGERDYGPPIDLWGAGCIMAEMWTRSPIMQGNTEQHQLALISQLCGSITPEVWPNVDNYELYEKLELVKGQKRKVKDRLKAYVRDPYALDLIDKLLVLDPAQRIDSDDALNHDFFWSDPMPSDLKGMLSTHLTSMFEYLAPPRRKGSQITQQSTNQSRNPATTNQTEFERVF
Sequence of CDK9-L156F mut/CyclinT1 mutant protein (O60563 whole entry partner): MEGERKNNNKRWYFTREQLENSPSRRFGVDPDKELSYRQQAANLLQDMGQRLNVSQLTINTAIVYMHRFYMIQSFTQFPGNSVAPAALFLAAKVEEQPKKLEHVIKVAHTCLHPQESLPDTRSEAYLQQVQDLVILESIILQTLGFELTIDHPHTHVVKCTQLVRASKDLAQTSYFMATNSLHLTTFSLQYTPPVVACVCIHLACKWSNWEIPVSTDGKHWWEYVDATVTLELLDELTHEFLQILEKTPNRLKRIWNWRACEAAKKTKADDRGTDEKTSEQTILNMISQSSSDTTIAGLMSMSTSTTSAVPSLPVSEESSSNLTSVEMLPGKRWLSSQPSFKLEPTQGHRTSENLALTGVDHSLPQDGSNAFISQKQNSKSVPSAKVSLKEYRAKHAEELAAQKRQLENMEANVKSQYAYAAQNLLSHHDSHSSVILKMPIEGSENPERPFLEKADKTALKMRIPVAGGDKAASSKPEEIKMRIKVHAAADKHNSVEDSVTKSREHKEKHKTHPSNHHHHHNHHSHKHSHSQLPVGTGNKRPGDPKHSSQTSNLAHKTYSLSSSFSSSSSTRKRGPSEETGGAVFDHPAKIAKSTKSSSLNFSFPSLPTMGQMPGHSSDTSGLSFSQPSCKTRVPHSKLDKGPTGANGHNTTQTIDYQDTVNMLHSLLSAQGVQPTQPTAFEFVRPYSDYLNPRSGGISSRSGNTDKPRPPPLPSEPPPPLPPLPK
The subject of test [17] is lymphoma cell WSU-DLCL2. Particulars: read-out: GI50 WSU-DLCL2; incubated for 72 hours, Cell Titer-Glo.
In test [18] the test system is cervical cancer cell HeLa. Particulars: read-out: GI50 HeLa; incubated for 72 hours, Cell Titer-Glo.
The subject of test [19] is gastrointestinal stromal tumor GIST-T1. Particulars: read-out: GI50 GIST-T1; incubated for 72 hours, Cell Titer-Glo.
Setting [20] is: Homo sapiens, MOLM-13, Table 1, read-out: GI50 MOLM 13.
[21] abbreviates: Homo sapiens, HCT-116, incubated for 72 hours.
[22] abbreviates: Homo sapiens, DLD-1, incubated for 72 hours.
Where [23] appears, read: incubated for 72 hours, Cell Titer-Glo.
The mark [24] stands for this setting: Homo sapiens, MOLM-13, Table 2, read-out: GI50 MOLM13.

SMILES strings stand for the structures. Where two headings read alike, the source gives them in different places.

Sequence of CDK9/CyclinT1 protein (P50750 whole entry): as the sequence (P50750 whole entry L156F) above, with F156L counted along it
Sequence of CDK9/CyclinT1 protein (O60563 whole entry partner): as the sequence (O60563 whole entry partner) above
Sequence of CDK9 (P50750 whole entry, the tested form may be a part): as the sequence (P50750 whole entry L156F) above, with F156L counted along it

Broadly, the GI50 is the concentration at which growth is held to half of that of the control. `CN1CCN(c2cccc(Nc3nccc(-c4ccc5c(c4)C(C)(C)CNC5=O)n3)c2)CC1` [Compound 37, 4,4-dimethyl-6-(2-((3-(4-methylpiperazin-1-yl)phenyl)amino)pyrimidin-4-yl)-3,4-dihydroisoquinolin-1(2H)-one]: the GI50 in test [1] (Table 3) was 27.8 nM; in test [2] (setting [20]), under 1 nM; in [3] (Homo sapiens, MOLM-14), under 1 nM; in test [4] (Homo sapiens, K562) it was 31 nM; in [5] it was 3.05 nM; in [7] (Homo sapiens, MV4-11, 72 h), under 1 nM. The “GI50 HepG2 CDK9 KI C20-1” value in [6] came to 74.8 nM. Besides, on CDK9, the IC50 is 49 nM.
Turning to `CCc1cnn2c(NCc3ccc[n+]([O-])c3)cc(N3CCCC[C@H]3CCO)nc12` [Dinaciclib, reference compound], the GI50 was 5 nM in [8]; 4 nM in test [9]; 15 nM in [10] (setting [21]); 8 nM in test [11] (Homo sapiens, COV434, 72 h); 11 nM in test [2] (setting [20]); 18 nM in test [3] (Homo sapiens, MOLM-14). In addition, the GI50 in [4] (Homo sapiens, K562) worked out at 53 nM; in test [12] (setting [22]) it was 30 nM; with lymphoma cell WSU-DLCL2 [13] it was 13 nM; in test [14], 16.5 nM; in test [15] it was 15 nM; in [7] (Homo sapiens, MV4-11, 72 h), 22 nM.
As for `CN1CCC(NC(=O)c2cc(Nc3nccc(-c4ccc5c(c4)C(C)(C)CNC5=O)n3)ccc2F)CC1` [Compound 41], the GI50 in [8] amounted to 13 nM; in test [9], 23 nM; in test [2] (setting [20]), 11 nM; in [3] (Homo sapiens, MOLM-14) it was 25 nM; in test [4] (Homo sapiens, K562), 84 nM; in test [7] (Homo sapiens, MV4-11, 72 h), 6.6 nM. The IC50 on CDK9 stood at 114 nM; at CDK9/CyclinT1 protein, 2.5 nM.
With `CN1CCN(c2ccc(Nc3nccc(-c4ccc5c(c4)C(C)(C)CNC5=O)n3)cc2)CC1` [Compound 40, 4,4-dimethyl-6-(2-((4-(4-methylpiperazin-1-yl)phenyl)amino)pyrimidin-4-yl)-3,4-dihydroisoquinolin-1(2H)-one], the GI50 in test [8] was found to be 4.6 nM; in test [9], 5 nM; in test [2] (setting [20]), 3 nM; in [3] (Homo sapiens, MOLM-14) it was 5.8 nM; in test [4] (Homo sapiens, K562), 25 nM; in test [5] it was 4.39 nM. The GI50 in test [7] (Homo sapiens, MV4-11, 72 h) was 1.7 nM. In addition, the IC50 on CDK9 came out at 67 nM; against CDK9/CyclinT1 protein, 6.6 nM.
Molecule `COCCN[C@H]1CC[C@H](Nc2nccc(-c3ccc4c(c3)C(C(C)C)(C(C)C)CNC4=O)n2)CC1` [Compound 14, 4,4-diisopropyl-6-(2-(((1r,4r)-4-((2-methoxyethyl)amino)cyclohexyl)amino)pyrimidin-4-yl)-3,4-dihydroisoquinolin-1(2H)-one] registered an IC50 in [16] of 98.6 nM.
`CC1(C)CNC(=O)c2ccc(-c3ccnc(Nc4cccc(N5CCCNCC5)c4)n3)cc21` [Compound 35, 6-(2-((3-(1,4-homopiperazin-1-yl)phenyl)amino)pyrimidin-4-yl)-4,4-dimethyl-3,4-dihydroisoquinolin-1(2H)-one]: the GI50 in [8] is 23 nM; in test [9], 33 nM; in test [1] (Table 3), 87.4 nM; in test [11] (Homo sapiens, COV434, 72 h), under 1 nM; in [2] (setting [20]) it was under 1 nM; in test [4] (Homo sapiens, K562), 25 nM. The GI50 in [5] is 1.69 nM; in test [7] (Homo sapiens, MV4-11, 72 h) it was under 1 nM. Moreover, the “GI50 HepG2 CDK9 KI C20-1” value in [6] stood at 138.5 nM. On CDK9, this molecule showed an IC50 of 300 nM.
Turning to `COC[C@@H](C)NC1CCC(Nc2cc(-c3csc(NCC4(C#N)CCOCC4)n3)c(Cl)cn2)CC1` (stereo partly shown) [JSH-009, reference compound], the GI50 in test [10] (incubated for 72 hours) is 23 nM; in [11] (setting [23]) it was 30 nM; in [2] (Table 1, read-out: GI50 MOLM 13), 4 nM; in test [3], 4 nM; in test [4], 9 nM; in [12] (incubated for 72 hours), 106 nM. The GI50 with lymphoma cell WSU-DLCL2 [17] was 16 nM; in test [18], 18 nM; in [19], 34 nM; in test [7] (setting [23]) it was 6 nM. In addition, at CDK9/CyclinT1 protein (read-out: CDK9/CyclinT1 Protein activity (IC50)), the IC50 amounted to 29 nM.
As to `CC1(C)CNC(=O)c2ccc(-c3ccnc(Nc4ccc(F)c(NS(C)(=O)=O)c4)n3)cc21` [Compound 34, N-(5-((4-(4,4-dimethyl-1-oxo-1,2,3,4-tetrahydroisoquinolin-6-yl)pyrimidin-2-yl)amino)-2-fluorophenyl)methanesulfamide], the GI50 in [8] turned out to be 7 nM; in test [9], 8 nM; in test [11] (Homo sapiens, COV434, 72 h) it was 9 nM; in test [2] (setting [20]), 11 nM; in test [4] (Homo sapiens, K562), 24 nM; in test [7] (Homo sapiens, MV4-11, 72 h), 4 nM. In addition, the figures for the IC50 on CDK9 and on CDK9/CyclinT1 protein were 50 nM and 6.1 nM, respectively.
`COc1cc(F)ccc1-c1cc(Nc2cc(CS(C)(=N)=O)ccn2)ncc1F` (stereo not shown) [BAY1251152, reference compound]: the 50% growth inhibitory concentration (GI50) was found to be 36.1 nM in test [1] (Table 3); 38 nM in test [2] (setting [24]); 40 nM in test [3] (Homo sapiens, MOLM-14); 1190 nM in test [5]; 27 nM in [7] (Homo sapiens, MV4-11, 72 h). In addition, the “GI50 HepG2 CDK9 KI C20-1” value in test [6] is over 1000 nM. Also, the “drug resistance on the drug resistant strain of liver cancer cell HepG2” value in test [6] (result in words) was “obvious drug resistance”.
For the molecule `Cc1ccc(Nc2nccc(-c3ccc4c(c3)C(C)(C)CNC4=O)n2)cc1N1CCN(C)CC1` [Compound 82, 4,4-methyl-6-(2-((4-methyl-3-(4-methylpiperazin-1-yl)phenyl)amino)pyrimidin-4-yl)-dihydroisoquinolin-1(2H)-one], the GI50 in test [2] (setting [20]) is under 1 nM; in test [2] (setting [24]), 0.845 nM; in [3] (Homo sapiens, MOLM-14) it was 0.8 nM; in test [4] (Homo sapiens, K562) it was 26 nM; in [5] it was 1.71 nM. In addition, the IC50 at CDK9/CyclinT1 protein came out at 2.6 nM; in test [16] it was 105 nM.
For the molecule `COCCNC1CCC(Nc2nccc(-c3ccc4c(c3)C(C(C)C)(C(C)C)CNC4=O)n2)CC1` (stereo not shown) [Compound 14, 4,4-diisopropyl-6-(2-(((1r,4r)-4-((2-methoxyethyl)amino)cyclohexyl)amino)pyrimidin-4-yl)-3,4-dihydroisoquinolin-1(2H)-one], the GI50 in test [1] (Table 1) came to 23 nM; in [10] (setting [21]), 12 nM; in [2] (setting [24]), 7.08 nM; in [4] (Homo sapiens, K562), 26 nM; in [12] (setting [22]) it was 63 nM; in test [5], 8.26 nM. Also, the concentration for 50% growth inhibition (GI50) in test [7] (Homo sapiens, MV4-11, 72 h) stood at 17 nM.
